Molecular target: T1, FLK-1R (Mus musculus, UniProt P35918)
T1 construct: expressed in transfected cells; host or cells: NIH3T3 C7#3
Assay: FLK-1 receptor ELISA in cells engineered to express Flk-1
Type: cell-based
Details: 50% inhibition of PTK activity over control
Experimental: The cellular/catalytic assays described herein are performed in an ELISA format. The general procedure is a follows: a compound is introduced to cells expressing the test kinase, either naturally or recombinantly, for some period of time after which, if the test kinase is a receptor, a ligand known to activate the receptor's activity is added. The cells are lysed and the lysate is transferred to the wells of an ELISA plate previously coated with a specific antibody recognizing the substrate of the enzymatic phosphorylation reaction. Non-substrate components of the cell lysate are washed away and the amount of phosphorylation on the substrate is detected with an antibody specifically recognizing phosphotyrosine compared with control cells that were not contacted with a test compound.
An ELISA assay is conducted to measure the kinase activity of the FLK-1 receptor and more specifically, the inhibition or activation of TK activity on the FLK-1 receptor. Specifically, the following assay can be conducted to measure kinase activity of the FLK-1 receptor in cells genetically engineered to express Flk-1.
The following reagents and supplies are used:
a. Corning 96-well ELISA plates (Corning Catalog No. 25805-96);
b. Cappel goat anti-rabbit IgG (catalog no. 55641);
c. PBS (Gibco Catalog No. 450-1300EB);
d. TBSW Buffer (50 mM Tris (pH 7.2), 150 mM NaCl and 0.1% Tween-20);
e. Ethanolamine stock (10% ethanolamine (pH 7.0), stored at 4° C.);
f. HNTG buffer (20 mM HEPES buffer (pH 7.5), 150 mM NaCl, 0.2% Triton X-100, and 10% glycerol);
g. EDTA (0.5 M (pH 7.0) as a 100×stock);
h. Sodium orthovanadate (0.5 M as a 100×stock);
i. Sodium pyrophosphate (0.2 M as a 100×stock);
j. NUNC 96 well V bottom polypropylene plates (Applied Scientific Catalog No. AS-72092);
k. NIH3T3 C7#3 Cells (FLK-1 expressing cells)
l. DMEM with 1×high glucose L-Glutamine (catalog No. 11965-050);
n. L-glutamine, Gibco (catalog no. 25030-016);
o. VEGF, PeproTech, Inc. (catalog no. 100-20) (kept as 1 μg/100 μL stock in Milli-Q dH2O and stored at −20° C.;
p. Affinity purified anti-FLK-1 antiserum;
q. UB40 monoclonal antibody specific for phosphotyrosine (see, Fendley, et al., 1990, Cancer Research 50:1550-1558);
r. EIA grade Goat anti-mouse IgG-POD (BioRad catalog no. 172-1011);
s. 2,2-azino-bis(3-ethylbenz-thiazoline-6-sulfonic acid (ABTS) solution (100 mM citric acid (anhydrous), 250 mM Na2HPO4 (pH 4.0), 0.5 mg/mL ABTS (Sigma catalog no. A-1888)), solution should be stored in dark at 4° C. until ready for use;
t. H2O2 (30% solution) (Fisher catalog no. H325);
u. ABTS/H2O2 (15 mL ABTS solution, 2 μL H2O2) prepared 5 minutes before use and left at room temperature;
v. 0.2 M HCl stock in H2O;
w. dimethylsulfoxide (100%)(Sigma Catalog No. D-8418); and
y. Trypsin-EDTA (Gibco BRL Catalog No. 25200-049).
The following protocol can be used for conducting the assay:
1. Coat Corning 96-well ELISA plates with 1.0 μg per well Cappel Anti-rabbit IgG antibody in 0.1 M Na2CO3 pH 9.6. Bring final volume to 150 μL per well. Coat plates overnight at 4° C. Plates can be kept up to two weeks when stored at 4° C.
2. Grow cells in Growth media(DMEM, supplemented with 2.0 mM L-Glutamine, 10% FBS) in suitable culture dishes until confluent at 37° C., 5% CO2.
3. Harvest cells by trypsinization and seed in Corning 25850 polystyrene 96-well round bottom cell plates, 25.000 cells/well in 200 μL of growth media.
4. Grow cells at least one day at 37° C., 5% CO2.
5. Wash cells with D-PBS 1×.
6. Add 200 μL/well of starvation media (DMEM, 2.0 mM 1-Glutamine, 0.1% FBS). Incubate overnight at 37° C., 5% CO2.
7. Dilute Compounds 1:20 in polypropylene 96 well plates using starvation media. Dilute dimethylsulfoxide 1:20 for use in control wells.
8. Remove starvation media from 96 well cell culture plates and add 162 μL of fresh starvation media to each well.
9. […]

T1 sequence (P35918 20-1345): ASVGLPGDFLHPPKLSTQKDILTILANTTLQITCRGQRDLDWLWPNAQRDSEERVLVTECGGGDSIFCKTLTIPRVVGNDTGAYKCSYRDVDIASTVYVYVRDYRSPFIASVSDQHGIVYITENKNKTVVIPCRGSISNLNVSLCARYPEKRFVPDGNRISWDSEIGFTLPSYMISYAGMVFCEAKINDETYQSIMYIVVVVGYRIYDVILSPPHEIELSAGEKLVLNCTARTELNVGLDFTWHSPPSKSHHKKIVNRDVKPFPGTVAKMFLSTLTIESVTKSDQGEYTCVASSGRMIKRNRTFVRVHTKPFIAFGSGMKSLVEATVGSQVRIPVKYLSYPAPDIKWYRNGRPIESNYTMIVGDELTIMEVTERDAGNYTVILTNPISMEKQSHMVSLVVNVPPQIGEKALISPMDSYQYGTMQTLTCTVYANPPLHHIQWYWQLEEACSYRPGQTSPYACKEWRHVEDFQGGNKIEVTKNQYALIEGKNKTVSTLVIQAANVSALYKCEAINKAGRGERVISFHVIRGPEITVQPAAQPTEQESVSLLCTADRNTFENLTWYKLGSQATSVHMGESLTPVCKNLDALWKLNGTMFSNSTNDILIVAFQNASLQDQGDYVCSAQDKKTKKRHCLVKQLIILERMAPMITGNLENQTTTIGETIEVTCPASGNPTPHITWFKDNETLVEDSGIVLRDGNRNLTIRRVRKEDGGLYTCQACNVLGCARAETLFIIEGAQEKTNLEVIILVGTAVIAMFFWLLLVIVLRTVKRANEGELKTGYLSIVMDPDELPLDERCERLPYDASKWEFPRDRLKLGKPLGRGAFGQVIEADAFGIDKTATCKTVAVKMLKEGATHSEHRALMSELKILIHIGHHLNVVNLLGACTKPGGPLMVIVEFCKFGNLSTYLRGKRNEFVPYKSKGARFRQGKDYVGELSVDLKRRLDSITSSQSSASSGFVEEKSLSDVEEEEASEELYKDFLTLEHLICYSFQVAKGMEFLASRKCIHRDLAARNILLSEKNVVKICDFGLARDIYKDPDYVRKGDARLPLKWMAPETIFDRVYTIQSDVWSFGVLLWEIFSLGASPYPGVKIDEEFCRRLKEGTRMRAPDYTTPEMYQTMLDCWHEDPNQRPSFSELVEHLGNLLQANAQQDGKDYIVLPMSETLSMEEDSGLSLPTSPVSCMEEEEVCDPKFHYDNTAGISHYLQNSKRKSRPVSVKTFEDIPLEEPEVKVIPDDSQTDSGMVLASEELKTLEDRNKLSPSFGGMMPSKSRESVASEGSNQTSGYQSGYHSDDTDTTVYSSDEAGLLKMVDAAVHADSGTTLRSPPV

| SMILES | IC50 [µM] |
| --- | --- |
| CCOC(=O)c1[nH]c(C=C2C(=O)Nc3ccccc32)c(C(C)=O)c1C [3-(4-acetyl-2-ethoxycarbonyl-3-methylpyrrol-5-methylidenyl)-2-indolinone] | > 10 |
| CCOC(=O)c1c[nH]c(C=C2C(=O)Nc3ccccc32)c1C [3-(4-ethoxycarbonyl-3-methylpyrrol-2-methylidenyl)-2-indolinone] | 0.2 |
| CCOC(=O)CCc1c(C(=O)OCC)[nH]c(C=C2C(=O)Nc3ccccc32)c1CC(=O)OCC [3-[2-ethoxycarbonyl-3-(2-ethoxycarbonylethyl)-4-ethoxycarbonylmethyl)pyrrol-5-methylidenyl)-2-indolinone] | > 10 |
| CC(=O)c1[nH]c(C=C2C(=O)Nc3ccccc32)c(C)c1C [3-(2-acetyl-3,4-dimethylpyrrol-5-methylidenyl)-2-indolinone] | 23.8 |
| CCOC(=O)c1c(C)[nH]c(C=C2C(=O)Nc3ccc(Br)cc32)c1C [3-(2,4-dimethyl-3-ethoxycarbonylpyrrol-5-methylidenyl)-5-bromo-2-indolinone] | 4.2 |
| COC(=O)CCc1c[nH]c(C=C2C(=O)Nc3cc(OC)c(OC)cc32)c1C [3-[4-(2-methoxycarbonylethyl)-3-methylpyrrol-2-methylidenyl]-5,6-dimethoxy-2-indolinone] | 36 |
| COC(=O)Cc1c(Cl)[nH]c(C=C2C(=O)Nc3ccccc32)c1C(=O)OC [3-(2-chloro-4-methoxycarbonyl-3-methoxycarbonylmethylpyrrol-5-methylidenyl)-2-indolinone] | > 50 |
| Cc1c[nH]c(C=C2C(=O)Nc3ccccc32)c1CCC(=O)O [3-[3-(2-carboxyethyl-4-methylpyrrol-2-methylidenyl]-2-indolinone] | 0.4 |
| COC(=O)CCc1c[nH]c(C=C2C(=O)Nc3ccccc32)c1C [3-[4-(2-methoxycarbonylethyl-3-methylpyrrol-2-methylidenyl]-2-indolinone] | 1.1 |
| CCOC(=O)c1c(C)[nH]c(C=C2C(=O)Nc3ccc(NC(=O)c4ccc(C(=O)OC)cc4)cc32)c1C [3-(2,4-dimethyl-3-ethoxycarbonylpyrrol-5-methylidenyl)-5-(4-methoxycarbonylbenzamido)-2-indolinone] | > 10 |

— patent US6486185B1, “3-heteroarylidene-2-indolinone protein kinase inhibitors” (Sugen, Inc., priority 1997, dated 2002)
